Legend:
Assay type in all cases: in vivo
[1] = tested on: Italian ryegrass (Lolium multiflorum); assay: Test B pre-/postemergence plant response
Excerpt: (§1) Seeds of plant species selected from bamyardgrass (Echinochloa crus-galli), kochia (Kochia scoparia), ragweed (common ragweed, Ambrosia elatior), Italian ryegrass (Lolium multiflorum), large (Lg) crabgrass (Digitaria sanguinalis), giant foxtail (Setaria faberii), momingglory (Ipomoea spp.), pigweed (Amaranthus retroflexus), velvetleaf (Abutilon theophrasti), wheat (Triticum aestivum), and corn (Zea mays) were planted into a blend of loam soil and sand and treated preemergence with a directed soil spray using test chemicals formulated in a non-phytotoxic solvent mixture which included a surfactant. At the same time, plants selected from these crop and weed species and also blackgrass (Alopecurus myosuroides), and galium (catchweed bedstraw, Galium aparine) were planted in pots containing the same blend of loam soil and sand and treated with postemergence applications of test chemicals formulated in the same manner. Plants ranged in height from 2 to 10 cm and were in the one- to two-leaf stage for the postemergence treatment. Treated plants and untreated controls were maintained in a greenhouse for approximately 10 days, after which time all treated plants were compared to untreated controls and visually evaluated for injury. Plant response ratings, summarized in Table B, are based on a 0 to 100 scale where 0 is no effect and 100 is complete control. A dash (-) response means no test result.

[2] = tested on: barnyardgrass (Echinochloa crus-galli); assay: Test B pre-/postemergence plant response
Excerpt: as §1

[3] = tested on: corn (Zea mays); assay: Test B pre-/postemergence plant response
Excerpt: as §1

[4] = tested on: giant foxtail (Setaria faberii); assay: Test B pre-/postemergence plant response
Excerpt: as §1

[5] = tested on: kochia (Kochia scoparia); assay: Test B pre-/postemergence plant response
Excerpt: as §1

[6] = tested on: pigweed (Amaranthus retroflexus); assay: Test B pre-/postemergence plant response
Excerpt: as §1

[7] = tested on: ragweed (common ragweed, Ambrosia elatior); assay: Test B pre-/postemergence plant response
Excerpt: as §1

[8] = tested on: wheat (Triticum aestivum); assay: Test B pre-/postemergence plant response
Excerpt: as §1

[9] = tested on: blackgrass (Alopecurus myosuroides); assay: Test B postemergence plant response
Excerpt: (§2) At the same time, plants selected from these crop and weed species and also blackgrass (Alopecurus myosuroides), and galium (catchweed bedstraw, Galium aparine) were planted in pots containing the same blend of loam soil and sand and treated with postemergence applications of test chemicals formulated in the same manner. Plants ranged in height from 2 to 10 cm and were in the one- to two-leaf stage for the postemergence treatment. Treated plants and untreated controls were maintained in a greenhouse for approximately 10 days, after which time all treated plants were compared to untreated controls and visually evaluated for injury. Plant response ratings, summarized in Table B, are based on a 0 to 100 scale where 0 is no effect and 100 is complete control. A dash (-) response means no test result.

[10] = tested on: galium (catchweed bedstraw, Galium aparine); assay: Test B postemergence plant response
Excerpt: as §2

[11] = tested on: barnyardgrass (Echinochloa crus-galli); assay: Test C flooded paddy test plant response; settings: Flood, 250 g ai/ha; scale of 0 to 100 where 0 is no effect and 100 is complete control; 13 to 15 days
Method: (§3) Plant species in the flooded paddy test selected from rice (Oryza sativa), small-flower umbrella sedge (Cyperus difformis), ducksalad (Heteranthera limosa), and bamyardgrass (Echinochloa crus-galli) were grown to the 2-leaf stage for testing. At time of treatment, test pots were flooded to 3 cm above the soil surface, treated by application of test compounds directly to the paddy water, and then maintained at that water depth for the duration of the test. Treated plants and controls were maintained in a greenhouse for 13 to 15 days, after which time all species were compared to controls and visually evaluated. Plant response ratings, summarized in Table C, are based on a scale of 0 to 100 where 0 is no effect and 100 is complete control. A dash (-) response means no test result.

[12] = tested on: ducksalad (Heteranthera limosa); assay: Test C flooded paddy test plant response; settings: Flood, 250 g ai/ha; scale of 0 to 100 where 0 is no effect and 100 is complete control; 13 to 15 days
Method: as §3

[13] = tested on: rice (Oryza sativa); assay: Test C flooded paddy test plant response; settings: Flood, 250 g ai/ha; scale of 0 to 100 where 0 is no effect and 100 is complete control; 13 to 15 days
Method: as §3

[14] = tested on: small-flower umbrella sedge (Cyperus difformis); assay: Test C flooded paddy test plant response; settings: Flood, 250 g ai/ha; scale of 0 to 100 where 0 is no effect and 100 is complete control; 13 to 15 days
Method: as §3

[15] = 125 g ai/ha, postemergence, 0 to 100 scale, 0 no effect, 100 complete control
[16] = Postemergence, 500 g ai/ha, 0 to 100 scale (0 no effect, 100 complete control)
[17] = Preemergence, 125 g ai/ha, 0 to 100 scale where 0 is no effect and 100 is complete control
[18] = Preemergence, 500 g ai/ha, 0 to 100 scale where 0 is no effect and 100 is complete control

Structure (SMILES)	Plant response rating, Ryegrass, Italian [1, 15]	Plant response rating, Ryegrass, Italian [1, 16]	Plant response rating, Ryegrass, Italian [1, 17]	Plant response rating, Ryegrass, Italian [1, 18]	Plant response rating, Barnyardgrass [2, 15]	Plant response rating, Barnyardgrass [2, 16]	Plant response rating, Barnyardgrass [2, 17]	Plant response rating, Barnyardgrass [2, 18]	Plant response rating, Corn [3, 15]	Plant response rating, Corn [3, 16]	Plant response rating, Foxtail, Giant [4, 15]	Plant response rating, Foxtail, Giant [4, 16]	Plant response rating, Foxtail, Giant [4, 17]	Plant response rating, Foxtail, Giant [4, 18]	Plant response rating, Kochia [5, 15]	Plant response rating, Kochia [5, 16]	Plant response rating, Kochia [5, 17]	Plant response rating, Kochia [5, 18]	Plant response rating, Pigweed [6, 15]	Plant response rating, Pigweed [6, 16]	other results
Cn1nnc(-c2ccccc2Oc2ncc(Cl)cn2)n1 [Compound 48]	0	0	40	50	0	0	0	40	0	10	0	40	10	50	50	100	60	80	70	100	Plant response rating, Pigweed [6, 17]: 80; Plant response rating, Pigweed [6, 18]: 100; Plant response rating, Ragweed [7, 15]: 50; Plant response rating, Ragweed [7, 16]: 70; Plant response rating, Ragweed [7, 17]: 50; Plant response rating, Ragweed [7, 18]: 60; Plant response rating, Wheat [8, 15]: 0; Plant response rating, Wheat [8, 16]: 0; Plant response rating, Blackgrass [9, 15]: 40; Plant response rating, Blackgrass [9, 16]: 60; Plant response rating, Galium [10, 15]: 70; Plant response rating, Galium [10, 16]: 100; Barnyardgrass plant response rating [11]: 0; Ducksalad plant response rating [12]: 0; Rice plant response rating [13]: 0; Sedge, Umbrella plant response rating [14]: 0
Cn1nnnc1-c1ccccc1Oc1ncc(Br)cn1 [Compound 49]	0	0	0	0	0	10	0	0	0	10	0	10	0	20	30	30	0	70	10	30	Plant response rating, Pigweed [6, 17]: 20; Plant response rating, Pigweed [6, 18]: 30; Plant response rating, Ragweed [7, 15]: 30; Plant response rating, Ragweed [7, 16]: 30; Plant response rating, Ragweed [7, 17]: 0; Plant response rating, Ragweed [7, 18]: 0; Plant response rating, Wheat [8, 15]: 10; Plant response rating, Wheat [8, 16]: 20; Plant response rating, Blackgrass [9, 15]: 0; Plant response rating, Blackgrass [9, 16]: 10; Plant response rating, Galium [10, 15]: 20; Plant response rating, Galium [10, 16]: 60; Barnyardgrass plant response rating [11]: 0; Ducksalad plant response rating [12]: 0; Rice plant response rating [13]: 0; Sedge, Umbrella plant response rating [14]: 0
Cn1cc(-c2ccccc2Oc2ncc(Cl)cn2)nn1 [Compound 51]	0	0	0	0	0	0	0	10	0	0	10	50	10	60	70	100	10	70	70	80	Plant response rating, Pigweed [6, 17]: 50; Plant response rating, Pigweed [6, 18]: 100; Plant response rating, Ragweed [7, 15]: 20; Plant response rating, Ragweed [7, 16]: 60; Plant response rating, Ragweed [7, 17]: 50; Plant response rating, Ragweed [7, 18]: 50; Plant response rating, Wheat [8, 15]: 0; Plant response rating, Wheat [8, 16]: 10; Plant response rating, Blackgrass [9, 15]: 0; Plant response rating, Blackgrass [9, 16]: 50; Plant response rating, Galium [10, 15]: 60; Plant response rating, Galium [10, 16]: 90; Barnyardgrass plant response rating [11]: 0; Ducksalad plant response rating [12]: 30; Rice plant response rating [13]: 0; Sedge, Umbrella plant response rating [14]: 0

— patent US10131652B2, “Pyrimidinyloxy benzene derivatives as herbicides” (E. I. DU PONT DE NEMOURS AND COMPANY, priority 2014, dated 2018)
